Laboratory results taken from article PMC6081452, “Downstream Products are Potent Inhibitors of the Heparan Sulfate 2-O-Sulfotransferase” (Scientific Reports, 2018).
“Also recorded” adds a separate entry of the source.

Assays:
[1] = target: T1, non-glyc-HS2ST (non-glycosylated chicken HS2ST), WT (Gallus gallus, UniProt Q76KB1); test: BLI equilibrium binding, non-glyc-HS2ST WT; conditions: BLI saturation binding curves, biotin-PEG4-linked hexasaccharide on sensor, n = 3, ± standard error of fit; — = response too weak to fit
T1 construct: made in house; host or cells: E. coli Origami B (DE3)
T1 sequence (Q76KB1 69-356 limits assumed): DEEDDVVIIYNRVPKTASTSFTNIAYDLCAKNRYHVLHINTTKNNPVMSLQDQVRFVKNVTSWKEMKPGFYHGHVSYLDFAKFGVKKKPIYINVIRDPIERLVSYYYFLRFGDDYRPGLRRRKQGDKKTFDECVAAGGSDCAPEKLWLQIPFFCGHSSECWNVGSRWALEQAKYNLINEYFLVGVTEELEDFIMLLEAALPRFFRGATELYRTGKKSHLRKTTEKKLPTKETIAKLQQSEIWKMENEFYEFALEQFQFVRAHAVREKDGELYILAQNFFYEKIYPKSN
Description: (§1) HS-protein binding studies often utilize biologically-derived oligosaccharides of heterogeneous length and sulfation[34],[35]; however, the synthesis of oligosaccharides with defined length and specific sulfation patterns has recently become possible. We employed biolayer interferometry (BLI) to determine equilibrium surface binding constants (KD) for HS2ST with synthetic HS hexasaccharides (Fig. 1 and Supplementary Table 1). The HS compounds were attached to the BLI biosensor surface to conserve sample and to ensure a significant signal upon protein binding. The HS compounds contained a biotinylated PEG4 linker at the reducing terminus, enhancing the likelihood of a consistent presentation of the linear glycan on the sensor surface, in contrast to immobilizations via intra-chain modifications.
Binding constants were collected for two isoforms of the enzyme; a glycosylated human variant (glyc-HS2ST) expressed in mammalian cell lines, and a highly homologous (96% identity) non-glycosylated chicken isoform expressed in E. coli (non-glyc-HS2ST). […] Thus, the enhanced ligand affinity seen in HS2ST was unexpected and may relate to the specific position of the glycosylation site (N108)[41].
The chicken HS2ST-Maltose Binding Protein (MBP) fusion protein was expressed and purified according to previous studies. The fusion protein was transformed into E. coli Origami B (DE3) cells, cultured at 37 °C until OD600 reached 0.5, then induced with isopropyl-β-D-thiogalactopyranoside and allowed to grow overnight at 20 °C. Cells were sonicated, followed by a two-step purification procedure. Whole-cell supernatant was passed through an amylose column with Tris buffer (25 mM Tris, 500 mM NaCl, pH 7.5). An elution buffer consisted of Tris Buffer with 40 mM Maltose. The amylose column eluent was concentrated and loaded on a Superdex 200 Increase 10/300 GL with PBS buffer (10 mM sodium phosphate, 150 mM NaCl, pH 7.8) to separate trimeric protein from aggregate and independent MBP (Supplementary Fig. 4). All reported mutations formed homotrimeric complexes according to the SEC profiles, including the negative control (NC = R189A/R80E/R184E). Protein concentration was assessed via UV at 280 nm (MW of trimer ~210 KDa, extinction coefficient ~119,000 M^−1 cm^−1 according to ExPASy ProtParam webtool[56]). The trimeric protein preparation was adjusted to 5% glycerol and stored at −20 °C until use. Additional non-glyc-HS2ST constructs were created with the Q5® Mutagenesis kit (New England Biolabs Inc.; cat. # E0554S) and sequenced at the Georgia Genomics Facility at the University of Georgia.
The Octet® RED96 system (FortéBio Inc.) was employed to detect the affinity of the enzymes for specific HS targets. Due to the small size of the glycan and the deep HS2ST binding cavity, the glycan and protein were treated as ligand and analyte, respectively. Varyingly sulfated HS fragments conjugated to biotin linkers were purchased from Glycan Therapeutics Inc. with purities greater than 93% according to HPLC (sequences located in Supplementary Table 1). The glycans were immobilized onto streptavidin (SA) labeled biosensors (FortéBio; cat. #18–5019) at 0.5 µg/mL. Experiments were performed at 25 °C in PBS Buffer (10 mM sodium phosphate, 150 mM NaCl, pH 7.8) with a final concentration of 1X Pall Kinetics buffer (FortéBio Inc; cat. #18–1092). Fresh biosensors and protein samples were used for each measurement (no regeneration step). […]

[2] = target: T2, glyc-HS2ST (glycosylated human HS2ST), WT (Homo sapiens, UniProt Q7LGA3); test: BLI equilibrium binding, glyc-HS2ST WT; conditions: BLI saturation binding curves, biotin-PEG4-linked hexasaccharide immobilised on sensor, n = 3, ± standard error of fit, 25 °C, PBS pH 7.8
T2 construct: the human HS2ST catalytic domain region comprising of 328 amino acid residues; His8 (N, cleaved yes); AviTag (N, cleaved yes); superfolder GFP (N, cleaved yes); made in house; host or cells: HEK293-F (transient transfection, secreted)
T2 sequence (Q7LGA3 29-356 limits assumed): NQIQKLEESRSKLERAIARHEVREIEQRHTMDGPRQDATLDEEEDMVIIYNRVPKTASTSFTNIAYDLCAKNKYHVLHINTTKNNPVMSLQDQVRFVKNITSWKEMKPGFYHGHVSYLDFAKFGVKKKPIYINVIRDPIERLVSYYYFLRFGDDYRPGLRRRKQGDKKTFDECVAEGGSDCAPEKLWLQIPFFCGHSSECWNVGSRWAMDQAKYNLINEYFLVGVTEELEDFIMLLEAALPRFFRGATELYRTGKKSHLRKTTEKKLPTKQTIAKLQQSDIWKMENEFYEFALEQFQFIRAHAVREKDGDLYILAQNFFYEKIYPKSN
Description: as §1, with “modifications. […]” for “modifications.”
An expression construct was generated encoding the truncated catalytic domain of human HS2ST as an NH2-terminal fusion protein in the pGEn2 expression vector essentially as described in prior studies. […] The recombinant human HS2ST was expressed as a soluble secreted protein by transient transfection of suspension culture HEK293-F cells (FreeStyle^TM 293-Fcells, Thermo Fisher Scientific, Waltham MA) maintained at 0.5–3.0 × 10^6 cells/ml in a humidified CO2 platform shaker incubator at 37 °C with 55% humidity. […]

In the case of “GlcNS-GlcA-GlcNS-IdoA-GlcNS-GlcA~ [Compound 1]”, the “Equilibrium KD, WT non-glyc-HS2ST” value [1] is reported as “too weak to measure; also recorded: insufficient for KD determination” and the “Equilibrium KD, WT glyc-HS2ST” value [2] is reported as “too weak to measure”.
